Laboratory results: patent US12568967B2, “Compositions comprising pyridine carboxylate herbicides with synthetic auxin herbicides or auxin transport inhibitors” (priority 2018, dated 2026)
Where “and” joins values, the source holds several entries; their conditions need not be identical. Equal entries are not always repeated.

Experiments:
Assay type in all cases: in vivo
[1] = tested on: Matricaria inodora (false chamomile, MATIN); assay: Greenhouse postemergence trial MATIN; conditions: MATIN; for % visual injury, Obs: applied alone
[2] = tested on: Leptochloa chinensis (Chinese sprangletop, LEFCH); assay: Greenhouse postemergence trial LEFCH; conditions: Compound A 10 g/ha
Method: (§1) Seeds of the desired test plant species were planted in a 90:10% v/v (volume/volume) mixture of PRO-MIX® BX (Premier Tech Horticulture, Quakertown, PA, USA) and PROFILE® GREENS GRADE™ (Profile Products LLC, Buffalo Grove, IL, USA) planting mixture, which typically has a pH of 5.2 to 6.2 and an organic matter content of at least 50 percent, in plastic pots with a surface area of 103.2 square centimeters (cm^2). […] The plants were grown for 7-36 days (d) in a greenhouse with an approximate 14-hour (h) photo-period which was maintained at about 23° C. during the day and 22° C. during the night. Nutrients and water were added on a regular basis and supplemental lighting was provided with overhead metal halide 1000-Watt lamps as necessary. The plants were employed for testing when they reached the second or third true leaf stage.
(§2) Emulsifiable concentrates of each of each pyridine carboxylate herbicide (Compound A or Compound B) were prepared at 100 grams acid equivalent per liter (g ae/L). The emulsifiable concentrates also included a safener, cloquintocet-mexyl, at 120 grams active ingredient per liter (g ai/L), unless otherwise noted below. An aliquot of each emulsifiable concentrate was placed in a 25 mL glass vial and diluted with an aqueous mixture of 1.25% (v/v) ACTIROB® B esterified rapeseed oil (Bayer Crop Science, Research Triangle Park, NC, USA) or MSO® Concentrate with LECI-TECH® methylated soybean oil (Loveland Products, Loveland, CO, USA) to obtain concentrated stock solutions at the highest application rate for each herbicide, based upon a 12 milliliter (mL) application volume at a rate of 187 liters per hectare (L/ha). The concentrated stock solutions were further diluted with an aqueous mixture of 1.25% v/v ACTIROB® B or MSO® Concentrate with LECI-TECH® to obtain stock solutions at reduced application rates for each herbicide. Spray solutions of the herbicide combinations (Compound A or Compound B plus synthetic auxin herbicide or auxin transport inhibitor) were prepared by adding weighed amounts or aliquots of the synthetic auxin herbicide or auxin transport inhibitor to the stock solutions of Compound A or Compound B to form 12-mL spray solutions in two-way combinations. […]
(§3) The treated plants and control plants were placed in a greenhouse as described above and watered by sub-irrigation to prevent wash-off of the test compounds. After 20-22 d, the condition of the test plants as compared with that of the control plants was determined visually and scored on a scale of 0 to 100 percent where 0 corresponds to no injury and 100 corresponds to complete kill.

[3] = tested on: Veronica persica (bird's-eye speedwell, VERPE); assay: Greenhouse postemergence trial VERPE; conditions: for % visual injury Obs / visual injury, Obs / % visual injury, Obs: VERPE; for % visual injury, Obs: applied alone
[4] = tested on: Sorghum vulgare (grain sorghum, SORVU); assay: Greenhouse postemergence trial SORVU; conditions: Compound A 10 g/ha
Method: as §1, §2, §3

[5] = tested on: Lolium multiflorum (Italian ryegrass, LOLMU); assay: Greenhouse postemergence trial LOLMU; conditions: Compound A 10 g/ha
Method: as §1
(§4) Emulsifiable concentrates of each of each pyridine carboxylate herbicide (Compound A or Compound B) were prepared at 100 grams acid equivalent per liter (g ae/L). The emulsifiable concentrates also included a safener, cloquintocet-mexyl, at 120 grams active ingredient per liter (g ai/L), unless otherwise noted below. An aliquot of each emulsifiable concentrate was placed in a 25 mL glass vial and diluted with an aqueous mixture of 1.25% (v/v) ACTIROB® B esterified rapeseed oil (Bayer Crop Science, Research Triangle Park, NC, USA) or MSO® Concentrate with LECI-TECH® methylated soybean oil (Loveland Products, Loveland, CO, USA) to obtain concentrated stock solutions at the highest application rate for each herbicide, based upon a 12 milliliter (mL) application volume at a rate of 187 liters per hectare (L/ha). The concentrated stock solutions were further diluted with an aqueous mixture of 1.25% v/v ACTIROB® B or MSO® Concentrate with LECI-TECH® to obtain stock solutions at reduced application rates for each herbicide. Spray solutions of the herbicide combinations (Compound A or Compound B plus synthetic auxin herbicide or auxin transport inhibitor) were prepared by adding weighed amounts or aliquots of the synthetic auxin herbicide or auxin transport inhibitor to the stock solutions of Compound A or Compound B to form 12-mL spray solutions in two-way combinations.
(§5) The spray solutions were applied to the plant material with an overhead Mandel track sprayer equipped with 8002E nozzles calibrated to deliver 187 L/ha over an application area of 0.503 square meters (m^2) at a spray height of 18 inches (43 centimeters (cm)) above the average plant canopy. Control plants were sprayed in the same manner with the solvent blank. All pyridine carboxylate herbicide (component a) application rates are given as “g ae/ha” and all synthetic auxin herbicide or auxin transport inhibitor (component b) application rates are given as “g ai/ha.”
as §3

[6] = tested on: Avena fatua (wild oat, AVEFA); assay: Greenhouse postemergence trial AVEFA; conditions: Compound A 10 g/ha
Method: as §1, §2, §3

[7] = tested on: Rumex obtusifolius (broad-leaf dock, RUMOB); assay: Greenhouse postemergence trial RUMOB; conditions: Compound A 10 g/ha
Method: as §1, §4, §5, §3

[8] = tested on: Cyperus esculentus (nutsedge, CYPES); assay: Greenhouse postemergence trial CYPES; conditions: Compound A 10 g/ha
Method: as §1, §2, §3

[9] = tested on: Brassica napus (spring rape, BRSNN); assay: Greenhouse postemergence trial BRSNN
[10] = tested on: Amaranthus retroflexus (pigweed, AMARE); assay: Greenhouse postemergence trial AMARE;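 note: Greenhouse-grown plants sprayed at second to third true leaf stage, injury rated by eye after 20-22 d versus solvent-blank sprayed controls, 0 = no injury, 100 = complete kill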
Method: The plants were grown for 7-36 days (d) in a greenhouse with an approximate 14-hour (h) photo-period which was maintained at about 23° C. during the day and 22° C. during the night. Nutrients and water were added on a regular basis and supplemental lighting was provided with overhead metal halide 1000-Watt lamps as necessary. The plants were employed for testing when they reached the second or third true leaf stage.
The emulsifiable concentrates also included a safener, cloquintocet-mexyl, at 120 grams active ingredient per liter (g ai/L), unless otherwise noted below.
Control plants were sprayed in the same manner with the solvent blank. All pyridine carboxylate herbicide (component a) application rates are given as “g ae/ha” and all synthetic auxin herbicide or auxin transport inhibitor (component b) application rates are given as “g ai/ha.”
as §3

[11] = tested on: Matricaria chamomilla (wild chamomile, MATCH); assay: Greenhouse postemergence trial MATCH;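 note: greenhouse plants sprayed at second to third true leaf stage, injury rated by eye 20-22 d later versus solvent-blank controls on 0–100 scale, 0 no injury, 100 complete kill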
[12] = tested on: Polygonum convolvulus (wild buckwheat, POLCO); assay: Greenhouse postemergence trial POLCO
Method: as §1, §4, §5, §3

[13] = tested on: Glycine max (volunteer soybean, GLXMA); assay: Greenhouse postemergence trial GLXMA; conditions: Compound A 10 g/ha
[14] = tested on: Salsola kali (Russian thistle, SASKR); assay: Greenhouse postemergence trial SASKR;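 note: greenhouse plants sprayed at second or third true leaf stage, injury rated by eye after 20-22 d against solvent-blank controls, 0 meaning no injury, 100 complete kill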
[15] = tested on: Anthemis arvensis (field chamomile, ANTAR); assay: Greenhouse postemergence trial ANTAR; conditions: ANTAR; for % visual injury Obs: alone; for % visual injury, Obs: applied alone
[16] = tested on: Matricaria discoidea (pineapple weed, MATMT); assay: Greenhouse postemergence trial MATMT; conditions: MATMT; for % visual injury Obs: alone; for % visual injury, Obs: applied alone
[17] = tested on: Stellaria media (chickweed, STEME); assay: Greenhouse postemergence trial STEME; conditions: for % visual injury Obs: alone
[18] = Compound A 10 g/ha, without safener

N#CCOC(=O)c1nc(-c2ccc3cc[nH]c3c2F)c(F)c(N)c1Cl [Compound A, cyanomethyl 4-amino-3-chloro-5-fluoro-6-(7-fluoro-1H-indol-6-yl)pyridine-2-carboxylate]
visual injury, Obs ([1]; Compound A 10 g/ha alone): 60%
visual injury, Obs ([1]; Compound A 15 g/ha alone): 60%
% visual injury (Obs) ([1]; alone 10 g/ha): 93%
% visual injury Obs ([1]; alone 10 g/ha): 60%
% visual injury Obs ([1]; alone, 15 g/ha): 60%
% visual injury, Obs ([1]; 10 g/ha): 60%
% visual injury, Obs ([1]; 15 g/ha): 60%
pest or weed control at […] ([1]; Tripleurospermum inodorum, post-emergence, Compound A 7.5 g/ha, read-out: % visual injury Obs): 30%
pest or weed control at 10 g/ha ([1]; Tripleurospermum inodorum, post-emergence, Compound A 10 g/ha, read-out: % visual injury Obs): 60%
pest or weed control at 15 g/ha ([1]; Tripleurospermum inodorum, post-emergence, Compound A 15 g/ha, read-out: % visual injury Obs): 60%
LEFCH Obs (% visual injury) ([2]; without safener): 0%
% visual injury, Obs ([2]; LEFCH): 0%
% visual injury Obs ([3]; Compound A 10 g/ha): 85%
visual injury, Obs ([3]; Compound A 10 g/ha alone): 85%
% visual injury Obs ([3]; Compound A 15 g/ha): 95%
visual injury, Obs ([3]; Compound A 15 g/ha alone): 95%
% visual injury Obs ([3]; alone, 10 g/ha): 85%
% visual injury Obs ([3]; alone, 15 g/ha): 95%
% visual injury, Obs ([3]; 10 g/ha): 85%
% visual injury, Obs ([3]; 15 g/ha): 95%
pest or weed control at […] ([3]; Veronica persica, post-emergence, VERVE, Compound A 7.5 g/ha, read-out: % visual injury Obs): 80%
pest or weed control at 10 g/ha ([3]; Veronica persica, post-emergence, VERVE, Compound A 10 g/ha, read-out: % visual injury Obs): 85%
pest or weed control at 15 g/ha ([3]; Veronica persica, post-emergence, VERVE, Compound A 15 g/ha, read-out: % visual injury Obs): 95%
SORVU Obs (% visual injury) ([4]; without safener): 0%
% visual injury, Obs ([4]; SORVU): 0%
LOLMU Obs (% visual injury) [5]: 0%
LOLMU Obs (% visual injury) ([5]; without safener): 0%
% visual injury, Obs ([5]; LOLMU): 0%
% visual injury, Obs ([6]; AVEFA): 0%
AVEFA Obs (% visual injury) ([6]; without safener): 0%
RUMOB Obs (% visual injury) [7]: 10%
RUMOB Obs (% visual injury) ([7]; without safener): 35%
% visual injury, Obs ([7]; RUMOB): 35%
% visual injury, Obs ([8]; CYPES): 0%
CYPES Obs (% visual injury) ([8]; without safener): 0%
% visual injury, Obs ([9]; BRSNN, Compound A 10 g/ha): 55%
% visual injury (Obs) ([9]; BRSNN, alone 10 g/ha): 73% and 70%
BRSNN Obs (% visual injury) ([9]; Compound A 10 g/ha): 55% and 83% and 70%
BRSNN % visual injury Obs ([9]; Compound A 10 g/ha (Table 42)): 55%
BRSNN % visual injury Obs ([9]; Compound A 10 g/ha (Table 43)): 55%
BRSNN % visual injury Obs ([9]; Compound A 10 g/ha (Table 44)): 55%
% visual injury, Obs ([10]; AMARE, Compound A 10 g/ha): 100% and 90%
% visual injury (Obs) ([10]; AMARE, alone 10 g/ha): 98% and 90%
% visual injury, Obs ([10]; AMARE, applied alone, 10 g/ha): 85%
AMARE Obs (% visual injury) ([10]; Compound A 10 g/ha): 100% and 98%
AMARE % visual injury Obs ([10]; Compound A 10 g/ha (Table 42)): 100%
AMARE % visual injury Obs ([10]; Compound A 10 g/ha (Table 43)): 100%
AMARE % visual injury Obs ([10]; Compound A 10 g/ha (Table 44)): 100%
MATCH % visual injury Obs ([11]; Compound A 10 g/ha (Table 42)): 13%
MATCH % visual injury Obs ([11]; Compound A 10 g/ha (Table 43)): 13%
MATCH % visual injury Obs ([11]; Compound A 10 g/ha (Table 44)): 13%
% visual injury, Obs ([11]; MATCH, Compound A 10 g/ha): 30%
visual injury, Obs ([11]; MATCH, Compound A 10 g/ha alone): 20%
visual injury, Obs ([11]; MATCH, Compound A 15 g/ha alone): 20%
% visual injury (Obs) ([11]; MATCH, alone 10 g/ha): 33% and 30%
% visual injury Obs ([11]; MATCH, alone 10 g/ha): 20%
% visual injury Obs ([11]; MATCH, alone, 15 g/ha): 20%
% visual injury, Obs ([11]; MATCH, applied alone, 10 g/ha): 20%
% visual injury, Obs ([11]; MATCH, applied alone, 15 g/ha): 20%
pest or weed control at […] ([11]; Matricaria chamomilla, post-emergence, MATCH, Compound A 7.5 g/ha, read-out: % visual injury Obs): 15%
pest or weed control at 10 g/ha ([11]; Matricaria chamomilla, post-emergence, MATCH, Compound A 10 g/ha, read-out: % visual injury Obs): 20%
pest or weed control at 15 g/ha ([11]; Matricaria chamomilla, post-emergence, MATCH, Compound A 15 g/ha, read-out: % visual injury Obs): 20%
POLCO Obs (% visual injury) ([12]; Compound A 10 g/ha): 91% and 70%
POLCO % visual injury Obs ([12]; Compound A 10 g/ha (Table 42)): 91%
POLCO % visual injury Obs ([12]; Compound A 10 g/ha (Table 43)): 91%
POLCO % visual injury Obs ([12]; Compound A 10 g/ha (Table 44)): 91%
POLCO Obs (% visual injury) [12, 18]: 78%
pest or weed control at […] ([12]; Fallopia convolvulus, post-emergence, POLCO, Compound A 7.5 g/ha, read-out: % visual injury Obs): 85%
pest or weed control at 10 g/ha ([12]; Fallopia convolvulus, post-emergence, POLCO, Compound A 10 g/ha, read-out: % visual injury Obs): 90%
pest or weed control at 15 g/ha ([12]; Fallopia convolvulus, post-emergence, POLCO, Compound A 15 g/ha, read-out: % visual injury Obs): 95%
% visual injury Obs ([12]; POLCO, Compound A 10 g/ha): 90%
% visual injury, Obs ([12]; POLCO, Compound A 10 g/ha): 91% and 70% and 78%
visual injury, Obs ([12]; POLCO, Compound A 10 g/ha alone): 90%
visual injury, Obs ([12]; POLCO, Compound A 15 g/ha alone): 95%
% visual injury (Obs) ([12]; POLCO, alone 10 g/ha): 86% and 96% and 70%
% visual injury Obs ([12]; POLCO, alone 10 g/ha): 90%
% visual injury Obs ([12]; POLCO, alone, 15 g/ha): 95%
% visual injury, Obs ([12]; POLCO, applied alone, 10 g/ha): 90% and 43%
% visual injury, Obs ([12]; POLCO, applied alone, 15 g/ha): 95%
GLXMA Obs (% visual injury) ([13]; without safener): 85%
% visual injury, Obs ([13]; GLXMA): 85%
SASKR Obs (% visual injury) ([14]; Compound A 10 g/ha): 65% and 63%
SASKR % visual injury Obs ([14]; Compound A 10 g/ha (Table 42)): 65%
SASKR % visual injury Obs ([14]; Compound A 10 g/ha (Table 43)): 65%
SASKR % visual injury Obs ([14]; Compound A 10 g/ha (Table 44)): 65%
% visual injury, Obs ([14]; SASKR, Compound A 10 g/ha): 65%
visual injury, Obs ([14]; SASKR, Compound A 10 g/ha alone): 50%
visual injury, Obs ([14]; SASKR, Compound A 15 g/ha alone): 50%
% visual injury (Obs) ([14]; SASKR, alone, 10 g/ha): 63%
% visual injury Obs ([14]; SASKR, alone, 10 g/ha): 50%
% visual injury Obs ([14]; SASKR, alone, 15 g/ha): 50%
% visual injury, Obs ([14]; SASKR, applied alone, 10 g/ha): 50% and 63%
% visual injury, Obs ([14]; SASKR, applied alone, 15 g/ha): 50%
pest or weed control at […] ([14]; Salsola kali, post-emergence, SASKR, Compound A 7.5 g/ha, read-out: % visual injury Obs): 30%
pest or weed control at 10 g/ha ([14]; Salsola kali, post-emergence, SASKR, Compound A 10 g/ha, read-out: % visual injury Obs): 50%
pest or weed control at 15 g/ha ([14]; Salsola kali, post-emergence, SASKR, Compound A 15 g/ha, read-out: % visual injury Obs): 50%
visual injury, Obs ([15]; Compound A 10 g/ha alone): 100%
visual injury, Obs ([15]; Compound A 15 g/ha alone): 100%
% visual injury Obs ([15]; 10 g/ha): 100%
% visual injury Obs ([15]; 15 g/ha): 100%
% visual injury, Obs ([15]; 10 g/ha): 100%
% visual injury, Obs ([15]; 15 g/ha): 100%
pest or weed control at […] ([15]; Anthemis arvensis, post-emergence, Compound A 7.5 g/ha, read-out: % visual injury Obs): 95%
pest or weed control at 10 g/ha ([15]; Anthemis arvensis, post-emergence, Compound A 10 g/ha, read-out: % visual injury Obs): 100%
pest or weed control at 15 g/ha ([15]; Anthemis arvensis, post-emergence, Compound A 15 g/ha, read-out: % visual injury Obs): 100%
visual injury, Obs ([16]; Compound A 10 g/ha alone): 5%
visual injury, Obs ([16]; Compound A 15 g/ha alone): 15%
% visual injury Obs ([16]; 10 g/ha): 5%
% visual injury Obs ([16]; 15 g/ha): 15%
% visual injury, Obs ([16]; 10 g/ha): 5%
% visual injury, Obs ([16]; 15 g/ha): 15%
pest or weed control at […] ([16]; Matricaria discoidea, post-emergence, Compound A 7.5 g/ha, read-out: % visual injury Obs): 5%
pest or weed control at 10 g/ha ([16]; Matricaria discoidea, post-emergence, Compound A 10 g/ha, read-out: % visual injury Obs): 5%
pest or weed control at 15 g/ha ([16]; Matricaria discoidea, post-emergence, Compound A 15 g/ha, read-out: % visual injury Obs): 15%
STEME Obs (% visual injury) [17, 18]: 88%
% visual injury, Obs ([17]; STEME, Compound A 10 g/ha): 88%
visual injury, Obs ([17]; STEME, Compound A 10 g/ha alone): 70%
visual injury, Obs ([17]; STEME, Compound A 15 g/ha alone): 100%
% visual injury Obs ([17]; STEME, 10 g/ha): 70%
% visual injury Obs ([17]; STEME, 15 g/ha): 100%
% visual injury, Obs ([17]; STEME, applied alone, 10 g/ha): 70%
% visual injury, Obs ([17]; STEME, applied alone, 15 g/ha): 100%
pest or weed control at […] ([17]; Stellaria media, post-emergence, STEME, Compound A 7.5 g/ha, read-out: % visual injury Obs): 65%
pest or weed control at 10 g/ha ([17]; Stellaria media, post-emergence, STEME, Compound A 10 g/ha, read-out: % visual injury Obs): 70%
pest or weed control at 15 g/ha ([17]; Stellaria media, post-emergence, STEME, Compound A 15 g/ha, read-out: % visual injury Obs): 100%
